pIC50: −log10 of the molar value.
Columns and labels:
Assay type in all cases: biochemical
PIP4K2B = target: T1, PIP4K2B (Homo sapiens, UniProt P78356); assay: Trans-FI P kinase assay PIP4K2B (Table 4); settings: compounds listed under IC50 bins; read-out: Trans-FI P kinase assays: PIP4K2B IC50
T1 construct: made in house; host or cells: E. coli
T1 sequence (P78356 1-416): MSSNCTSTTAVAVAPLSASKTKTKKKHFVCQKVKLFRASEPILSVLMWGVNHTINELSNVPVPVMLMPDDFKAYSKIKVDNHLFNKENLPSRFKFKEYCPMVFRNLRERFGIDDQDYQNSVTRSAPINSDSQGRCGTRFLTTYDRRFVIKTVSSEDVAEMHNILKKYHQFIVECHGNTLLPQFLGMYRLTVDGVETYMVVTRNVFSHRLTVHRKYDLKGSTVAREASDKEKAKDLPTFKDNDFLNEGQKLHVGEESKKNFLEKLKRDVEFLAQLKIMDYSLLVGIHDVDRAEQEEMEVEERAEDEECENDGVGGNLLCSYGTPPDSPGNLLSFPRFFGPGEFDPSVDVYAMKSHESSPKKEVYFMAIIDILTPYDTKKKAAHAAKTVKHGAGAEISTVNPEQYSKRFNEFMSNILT
In short: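 Transcreener FI detection (Ex 584/Em 623) of GDP, converted via calibration curve, gives IC50 from residual activity versus log concentration (highest 4.8 μM). Reaction: 80 μM PI5P plus DOPE carrier, 100 μM GTP, 5 nM GST-tagged enzyme, pH 7.3 HEPES with MgCl2 and 5% DMSO, 2 h after 1 h enzyme-compound preincubation at 27° C.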

PIP4K2A [1] = target: T2, PIP4K2A (Homo sapiens, UniProt P48426); assay: ADP-glo kinase assay PIP4K 2A (Table 3); design: made in house; host or cells: E. coli; settings: compounds listed under IC50 bins
T2 sequence (P48426 1-406): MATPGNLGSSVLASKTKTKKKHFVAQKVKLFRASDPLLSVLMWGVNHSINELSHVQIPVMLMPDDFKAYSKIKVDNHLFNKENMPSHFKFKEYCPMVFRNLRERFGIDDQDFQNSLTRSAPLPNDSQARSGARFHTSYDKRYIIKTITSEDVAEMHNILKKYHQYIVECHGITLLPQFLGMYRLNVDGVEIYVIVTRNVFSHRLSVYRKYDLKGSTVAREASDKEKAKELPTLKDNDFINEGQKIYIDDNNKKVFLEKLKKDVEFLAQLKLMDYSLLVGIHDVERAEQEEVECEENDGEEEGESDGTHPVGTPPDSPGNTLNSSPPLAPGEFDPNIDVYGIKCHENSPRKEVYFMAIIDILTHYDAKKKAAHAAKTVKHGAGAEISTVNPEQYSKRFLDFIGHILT
In short: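 ADP-Glo luminescence detected ADP after 1 h RT reaction started by ATP (60 μM solution) on full-length PIP4K2A (4 nM in mix) and PI(5)P diC8 (100 μM in mix), preceded by 15 min enzyme-compound preincubation in MOPS pH 7.2/25 mM MgCl2. Percent inhibition versus DMSO over 10 concentrations fitted for IC50.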

PIP4K2A [2] = target: T2, PIP4K2A; assay: Kinase Assay PIP4K2 A (Table 2); design: 4 nM PIP4K2A (full length protein, SignalChem); purchased SignalChem; settings: compounds listed under IC50 bins
In short: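 ADP-Glo luminescent read-out after 1 h room-temperature kinase reaction, started with 60 μM ATP solution following 15 min compound pre-incubation. Enzyme/substrate mix: 4 nM full-length PIP4K2A plus 100 μM PI(5)P diC8; buffer MOPS pH 7.2 with 25 mM MgCl2 and Tween 20. IC50 from 10-point, 3-fold titrations normalized to DMSO.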

pIC50 (PIP4K2B)	pIC50 (PIP4K2A [1])	pIC50 (PIP4K2A [2])	SMILES
7.00 to 8.00	8.00 to 9.00	≥ 9.00	C[C@H](c1ccccc1)N1CCN(c2cncc(Nc3ccc(-c4ccc(C(=O)N(C)C)cc4)cn3)c2)C1=O [Example 81, (R)—N,N-dimethyl-4-(6-((5-(2-oxo-3-(1-phenylethyl)imidazolidin-1-yl)pyridin-3-yl)amino)pyridin-3-yl)benzamide]
7.00 to 8.00	7.00 to 8.00	7.00 to 8.00	CN(C)C(=O)c1ccc(-c2ccc(Nc3cncc(NC(=O)c4ccc5c(c4)B(O)OC5)c3)nc2)cc1 [Example 133, N-(5-((5-(4-(dimethylcarbamoyl)phenyl)pyridin-2-yl)amino)pyridin-3-yl)-1-hydroxy-1,3-dihydrobenzo[c][1,2]oxaborole-6-carboxamide]
7.00 to 8.00	6.00 to 7.00	6.00 to 7.00	CN(C)CC(=O)Nc1cncc(Nc2ccc(-c3ccc(C(=O)N(C)C)cc3)cn2)c1 [Example 125, 4-(6-((5-(2-(dimethylamino)acetamido)pyridin-3-yl)amino)pyridin-3-yl)-N,N-dimethylbenzamide]
7.00 to 8.00	7.00 to 8.00	7.00 to 8.00	CN(C)C(=O)c1ccc(-c2ccc(Nc3cncc(NC(=O)c4ccc5ncoc5c4)c3)nc2)cc1 [Example 136, N-(5-((5-(4-(dimethylcarbamoyl)phenyl)pyridin-2-yl)amino)pyridin-3-yl)benzo[d]oxazole-6-carboxamide]
7.00 to 8.00	6.00 to 7.00	7.00 to 8.00	CN(C)C(=O)c1ccc(-c2ccc(Nc3cncc(NC(=O)Cc4ccccc4)c3)nc2)cc1 [Example 123, N,N-dimethyl-4-(6-((5-(2-phenylacetamido)pyridin-3-yl)amino)pyridin-3-yl)benzamide]
< 6.00	< 6.00	< 6.00	CN(C)C(=O)c1cnc(-c2ccc(Nc3cccnc3)nc2)nc1 [Example 29, N,N-dimethyl-2-(6-(pyridin-3-ylamino)pyridin-3-yl)pyrimidine-5-carboxamide]
< 6.00	< 6.00	6.00 to 7.00	O=C(c1cccc2ncc(Nc3ccc(-c4ccc(N5CCCC5=O)cc4)cn3)cc12)N1CCC(O)C1 (stereo not drawn) [Example 149, 1-(4-(6-((5-(3-hydroxypyrrolidine-1-carbonyl)quinolin-3-yl)amino)pyridin-3-yl)phenyl)pyrrolidin-2-one]
7.00 to 8.00	6.00 to 7.00	7.00 to 8.00	CN(C)C/C=C/C(=O)NCCOCCOCCC(=O)Nc1cccc(C(=O)Nc2cncc(Nc3ccc(-c4ccc(C(=O)N(C)C)cc4)cn3)c2)c1 [Example 114, (E)-N,N-dimethyl-4-(6-((5-(3-(2-methyl-6-oxo-10,13-dioxa-2,7-diazahexadec-4-en-16-amido)benzamido)pyridin-3-yl)amino)pyridin-3-yl)benzamide]
< 6.00	6.00 to 7.00	6.00 to 7.00	Cc1nc2ncc(Nc3ccc(-c4ccc(C(=O)N(C)C)cc4)cn3)cc2o1 [Example 61, N,N-dimethyl-4-(6-((2-methyloxazolo[4,5-b]pyridin-6-yl)amino)pyridin-3-yl)benzamide]
7.00 to 8.00	7.00 to 8.00	8.00 to 9.00	CC(=O)N1CCOc2ncc(Nc3ccc(-c4ccc(N5CCCC5=O)cc4)cn3)cc21 [Example 86, 1-(4-(6-((1-acetyl-2,3-dihydro-1H-pyrido[2,3-b][1,4]oxazin-7-yl)amino)pyridin-3-yl)phenyl)pyrrolidin-2-one]
7.00 to 8.00	7.00 to 8.00	7.00 to 8.00	CN(C)C(=O)c1ccc(-c2ccc(Nc3cncc(NC(=O)c4ccccc4)c3)nc2)cc1 [Example 121, 4-(6-((5-benzamidopyridin-3-yl)amino)pyridin-3-yl)-N,N-dimethylbenzamide]
< 6.00	< 6.00	< 6.00	CN(C)C(=O)c1ccc(-c2ccc(Nc3cncc(N4CCN(Cc5ccc(NC(=O)CN)cc5)C4=O)c3)nc2)cc1 [Example 228, 4-(6-((5-(3-(4-(2-aminoacetamido)benzyl)-2-oxoimidazolidin-1-yl)pyridin-3-yl)amino)pyridin-3-yl)-N,N-dimethylbenzamide]
7.00 to 8.00	7.00 to 8.00	8.00 to 9.00	CN(C)C(=O)c1ccc(-c2ccc(Nc3cnc4c(c3)N(C(=O)C(C)(C)CO)CCO4)nc2)cc1 [Example 96, 4-(6-((1-(3-hydroxy-2,2-dimethylpropanoyl)-2,3-dihydro-1H-pyrido[2,3-b][1,4]oxazin-7-yl)amino)pyridin-3-yl)-N,N-dimethylbenzamide]
7.00 to 8.00	6.00 to 7.00	7.00 to 8.00	CN(C)C(=O)c1ccc(-c2ccc(Nc3cncc(NC(=O)c4cccnc4)c3)nc2)cc1 [Example 129, N-(5-((5-(4-(dimethylcarbamoyl)phenyl)pyridin-2-yl)amino)pyridin-3-yl)nicotinamide]
7.00 to 8.00	6.00 to 7.00	7.00 to 8.00	CN(C)C(=O)c1ccc(-c2ccc(Nc3cncc(NC(=O)c4ccccn4)c3)nc2)cc1 [Example 128, N-(5-((5-(4-(dimethylcarbamoyl)phenyl)pyridin-2-yl)amino)pyridin-3-yl)picolinamide]
7.00 to 8.00	7.00 to 8.00	7.00 to 8.00	O=C1CCCN1c1ccc(-c2ccc(Nc3cncc(N4CCN(Cc5cocn5)C4=O)c3)nc2)cc1 [Example 165, 1-(oxazol-4-ylmethyl)-3-(5-((5-(4-(2-oxopyrrolidin-1-yl)phenyl)pyridin-2-yl)amino)pyridin-3-yl)imidazolidin-2-one]
7.00 to 8.00	7.00 to 8.00	8.00 to 9.00	CN(C)C(=O)c1ccc(-c2ccc(Nc3cncc(NC(=O)c4cccc5[nH]cnc45)c3)nc2)cc1 [Example 232, N-(5-((5-(4-(dimethylcarbamoyl)phenyl)pyridin-2-yl)amino)pyridin-3-yl)-1H-benzo[d]imidazole-7-carboxamide]
8.00 to 9.00	8.00 to 9.00	8.00 to 9.00	COCc1nc(Nc2cnc3c(c2)N2C(=O)CC[C@H]2CO3)ncc1-c1ccc(N2CCCC2=O)cc1 [Example 197, (S)-2-((4-(methoxymethyl)-5-(4-(2-oxopyrrolidin-1-yl)phenyl)pyrimidin-2-yl)amino)-6,6a,7,8-tetrahydro-9H-pyrido[2,3-b]pyrrolo[1,2-d][1,4]oxazin-9-one]
7.00 to 8.00	7.00 to 8.00	7.00 to 8.00	CN(c1cncc(Nc2ccc(-c3ccc(N4CCCC4=O)cc3)cn2)c1)S(C)(=O)=O [Example 157, N-methyl-N-(5-((5-(4-(2-oxopyrrolidin-1-yl)phenyl)pyridin-2-yl)amino)pyridin-3-yl)methanesulfonamide]
7.00 to 8.00	7.00 to 8.00	8.00 to 9.00	CN(C)C(=O)c1ccc(-c2ccc(Nc3cncc(NC(=O)c4ccnc(N)c4)c3)nc2)cc1 [Example 131, 2-amino-N-(5-((5-(4-(dimethylcarbamoyl)phenyl)pyridin-2-yl)amino)pyridin-3-yl)isonicotinamide]
7.00 to 8.00	8.00 to 9.00	8.00 to 9.00	CN(C)C(=O)c1ccc(-c2ccc(Nc3cncc(N4CCN(Cc5ccc(NC(=O)CCc6cccc(N)c6)cc5)C4=O)c3)nc2)cc1 [Example 230, 4-(6-((5-(3-(4-(3-(3-aminophenyl)propanamido)benzyl)-2-oxoimidazolidin-1-yl)pyridin-3-yl)amino)pyridin-3-yl)-N,N-dimethylbenzamide]
7.00 to 8.00	8.00 to 9.00	≥ 9.00	COc1cc(Nc2cnc3c(c2)N2C(=O)CC[C@H]2CO3)ncc1-c1ccc(N2CCCC2=O)c(F)c1 [Example 183, (S)-2-((5-(3-fluoro-4-(2-oxopyrrolidin-1-yl)phenyl)-4-methoxypyridin-2-yl)amino)-6,6a,7,8-tetrahydro-9H-pyrido[2,3-b]pyrrolo[1,2-d][1,4]oxazin-9-one]
